Measurements reported in US6878742B2, “Heterocyclic sulfonamide inhibitors of beta amyloid production” (Wyeth, priority 2000, dated 2005).
Values joined by “and” are separate entries in the source; they are usually repeats but may differ in a detail not shown here. Identical values can stand only once.

Experiments:
[1] = tested on: amyloid precursor protein (APP) proteolysis; test: Repressor Release Assay (RRA); format: cell-based; conditions: Conc 20 μg/mL, luciferase activity over diluent control; for fold induction at 20 µg/mL: read-out: APPI Fold Increase
How it was run: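 CHO-K1 cells grown in DMEM with 10% fetal bovine serum were transiently co-transfected with pRSVO-luc and APP-lacI constructs via Lipofectamine Plus, plated into opaque 96-well plates, and exposed to diluted compound in duplicate for 36-48 hours at 37° C. LucLite luciferase signal was read on a TopCount and expressed as fold increase in relative light units over Hepes/DMSO diluent control.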

SMILES	fold induction at 20 µg/mL [1]	APPI Fold Increase [1]	melting point
O=S(=O)(NC1(CO)CC2CCC1C2)c1ccc(Br)s1 (stereo not shown) [Example 182, 5-bromo-N-[2-(hydroxymethyl)bicyclo[2.2.1]hept-2-yl]thiophene-2-sulfonamide]	4.2		
O=S(=O)(NC1(CO)Cc2ccccc2C1)c1ccc(Br)s1 [Example 183]		3.7 fold	
CCC[C@@H](O)[C@@H](NS(=O)(=O)c1ccc(Cl)s1)[C@@H](C)CC [Example 187, 5-chloro-N-{(S,R)-2-hydroxy-1-[(S)-1-methylpropyl]pentyl}thiophene-2-sulfonamide]		5.7 fold and 3 fold	
CCC[C@H](O)[C@@H](NS(=O)(=O)c1ccc(Br)s1)[C@@H](C)CC [Example 192, 5-bromo-N-{(S,S)-2-hydroxy-1-[(S)-1-methylpropyl]pentyl}thiophene-2-sulfonamide]		2.2 fold and 1.9 fold and 1.7 fold	
CC[C@H](C)[C@H](NS(=O)(=O)c1ccc(Cl)s1)C(O)C(F)(F)F (stereo partly drawn) [Example 196, 5-Chloro-N-[(S,S)-2-methyl-1-(2,2,2-trifluoro-1-hydroxyethyl)butyl]thiophene-2-sulfonamide]	20.7		
C=C(C)CC(O)C1(NS(=O)(=O)c2ccc(Cl)s2)CCCCC1 (stereo not shown) [Example 198, 5-chloro-N-[1-(1-hydroxy-3-methylbut-3-enyl)cyclohexyl]thiophene-2-sulfonamide]	4.4		
COC1CCC([C@@H](CO)NS(=O)(=O)c2ccc(Cl)s2)CC1 (stereo partly drawn) [Example 199, 5-Chloro-N-[(S)-2-hydroxy-1-(4-methoxycyclohexyl)ethyl]thiophene-2-sulfonamide]	2.8		
O=S(=O)(N[C@H](CO)C1CCC(O)CC1)c1ccc(Cl)s1 (stereo partly drawn) [Example 199A, 5-Chloro-N-[(S)-2-hydroxy-1-(4-hydroxycyclohexyl)ethyl]thiophene-2-sulfonamide]	2.4		
CCCOC1CCC([C@@H](CO)NS(=O)(=O)c2ccc(Cl)s2)CC1 (stereo partly drawn) [Example 200, 5-chloro-N-[(S)-2-hydroxy-1-(4-propoxycyclohexyl)ethyl]thiophene-2-sulfonamide]	2		
C=CCOC1CCC([C@@H](CO)NS(=O)(=O)c2ccc(Cl)s2)CC1 (stereo partly drawn) [Example 201, N-{(S)-1-[4-(allyloxy)cyclohexyl]-2-hydroxyethyl}-5-chlorothiophene-2-sulfonamide]	2.2		
O=S(=O)(N[C@H](CO)C1CCC(OCc2ccccc2)CC1)c1ccc(Cl)s1 (stereo partly drawn) [Example 202, N-{(S)-1-[4-(benzyloxy)cyclohexyl]-2-hydroxyethyl}-5-chlorothiophene-2-sulfonamide]	2		
CC(=O)N1CCC(CO)(NS(=O)(=O)c2ccc(Cl)s2)CC1 [Example 203, N-[1-Acetyl-4-(hydroxymethyl)piperidin-4-yl]-5-chlorothiophene-2-sulfonamide]	1.5		
CC[C@H](C)[C@@H](CO)NS(=O)(=O)c1ccc(Cl)o1 [Example 204, 5-Chloro-N-[(1S,2S)-1-(hydroxymethyl)-2-methylbutyl]-2-furansulfonamide]	2.8		
CCCCC(CCCC)[C@@H](CO)NS(=O)(=O)c1ccc(Cl)s1 [Example 205, N-[(1S)-2-Butyl-1-(hydroxymethyl)hexyl]-5-chloro-2-thiophenesulfonamide]	2.6		
CC[C@H](C)[C@@H](CO)NS(=O)(=O)c1ccco1 [Example 206, N-[(1S,2S)-1-(hydroxymethyl)-2-methylbutyl]-2-furansulfonamide]	1.8		
CC[C@H](C)[C@@H](CO)NS(=O)(=O)c1ccc(I)s1 [Example 207, N-[(1S,2S)-1-(Hydroxymethyl)-2-methylbutyl]-5-iodo-2-thiophenesulfonamide]	5.6		
CC[C@H](C)[C@@H](CO)NS(=O)(=O)c1ccc(F)s1 [Example 208, 5-Fluoro-N-[(1S,2S)-1-(hydroxymethyl)-2-methylbutyl]-2-thiophenesulfonamide]	16.5		
CC(C)(C)OC(=O)N1CCC([C@@H](CO)NS(=O)(=O)c2ccc(Cl)s2)CC1 [Example 209, 4-[1-(5-Chloro-thiophene-2-sulfonylamino)-2-hydroxy-ethyl]-piperidine-1-carboxylic acid tert-butyl ester]	2.1		
CC[C@H](C)[C@@H](CO)NS(=O)(=O)c1cccs1 [Example 210, N-[(1S,2S)-1-(Hydroxymethyl)-2-methylbutyl]thiophene-2-sulfonamide]		7.7 fold	

SMILES	fold induction at 20 µg/mL [1]	APPI Fold Increase [1]	melting point
O=S(=O)(N[C@H](CO)C1CCC(NCc2ccccc2)CC1)c1ccc(Cl)s1 (stereo partly drawn) [Example 211, 5-Chloro-N-[(S)-2-hydroxy-1-(4-benzylaminocyclohexyl)ethyl]thiophene-2-sulfonamide]	1.9		
CNC1CCC([C@@H](CO)NS(=O)(=O)c2ccc(Cl)s2)CC1 (stereo partly drawn) [Example 212, 5-chloro-N-[(S)-2-hydroxy-1-(4-methylaminocyclohexyl)ethyl]thiophene-2-sulfonamide]	1.7		
CCNC1CCC([C@@H](CO)NS(=O)(=O)c2ccc(Cl)s2)CC1 (stereo partly drawn) [Example 213, 5-chloro-N-[(S)-2-hydroxy-1-(4-ethylaminocyclohexyl)ethyl]thiophene-2-sulfonamide]	1.6		
C=CCNC1CCC([C@@H](CO)NS(=O)(=O)c2ccc(Cl)s2)CC1 (stereo partly drawn) [Example 215, 5-chloro-N-[(S)-2-hydroxy-1-(4-allylaminocyclohexyl)ethyl]thiophene-2-sulfonamide]	2		
O=S(=O)(N[C@H](CO)C1CCC(NCc2cccnc2)CC1)c1ccc(Cl)s1 (stereo partly drawn) [Example 216, 5-chloro-N-[(S)-2-hydroxy-1-(4-(3-pyridyl)methylaminocyclohexyl)ethyl]thiophene-2-sulfonamide]	1.5		
O=S(=O)(N[C@H](CO)C1CCC(N2CCOCC2)CC1)c1ccc(Cl)s1 (stereo partly drawn) [Example 217, 5-chloro-N-[(S)-2-hydroxy-1-(4-morpholinocyclohexyl)ethyl]thiophene-2-sulfonamide]	1.8		
O=S(=O)(N[C@H](CO)C1CCC(NCc2ccncc2)CC1)c1ccc(Cl)s1 (stereo partly drawn) [Example 218, 5-chloro-N-[(S)-2-hydroxy-1-(4-(4-pyridyl)methylaminocyclohexyl)ethyl]thiophene-2-sulfonamide]	2.8		
O=S(=O)(N[C@H](CO)C1CCC(NCc2ccccn2)CC1)c1ccc(Cl)s1 (stereo partly drawn) [Example 219, 5-chloro-N-[(S)-2-hydroxy-1-(4-(2-pyridyl)methylaminocyclohexyl)ethyl]thiophene-2-sulfonamide]	2.3		
CCOC(=O)CNC1CCC([C@@H](CO)NS(=O)(=O)c2ccc(Cl)s2)CC1 (stereo partly drawn) [Example 220, 5-chloro-N-[(S)-2-hydroxy-1-(4-(carboethoxymethyl)aminocyclohexyl)ethyl]thiophene 2-sulfonamide]	2.5		
CCC(CC)[C@@H](C=O)NS(=O)(=O)c1ccc(Cl)s1 [Example 221A, 5-Chloro-N-[(S)-2-ethyl-1-formylbutyl]thiophene-2-sulfonamide]	4.9		
CCC(CC)[C@H](NS(=O)(=O)c1ccc(Cl)s1)C(C)O (stereo partly drawn) [Example 222, 5-Chloro-N-[(S)-2-ethyl-1-(1-hydroxyethyl)butyl]thiophene-2-sulfonamide]	7.2		95 to 98 °C
CCC(CC)[C@H](NS(=O)(=O)c1ccc(Cl)s1)C(C)(C)O [Example 223, 5-Chloro-N-[(S)-2-ethyl-1-(1-hydroxy-1-methylethyl)butyl]thiophene-2-sulfonamide]	5.6		
O=S(=O)(NC(CO)C1CCSCC1)c1ccc(Cl)s1 (stereo not shown) [Example 224, 5-Chloro-N-(2-hydroxy-1-tetrahydro-H-thiopyran-4-ylethyl)thiophene-2-sulfonamide]	7.2		108 to 110 °C
O=S(=O)(N[C@H](CO)C1CCNCC1)c1ccc(Cl)s1 [Example 225, 5-Chloro-N-[(S)-2-hydroxy-1-piperidin-4-ylethyl]thiophene-2-sulfonamide]	8		
CCC(CC)[C@@H](CO)NS(=O)(=O)c1cccs1 [Example 226, N-[(S)-2-Ethyl-1-(hydroxymethyl)butyl]thiophene-2-sulfonamide]	7.6		
CCC(CC)[C@@H](CO)NS(=O)(=O)c1ccc(F)s1 [Example 227, N-[(S)-2-Ethyl-1-(hydroxymethyl)butyl]-5-fluorothiophene-2-sulfonamide]	26.3		
O=S(=O)(N[C@H](CO)C1Cc2ccccc2C1)c1ccc(Cl)s1 [Example 228, 5-Chloro-N-[(1S)-1-(2,3-dihydro-1H-inden-2-yl)-2-hydroxyethyl]thiophene-2-sulfonamide]	9.9		
CC[C@H](C)[C@@H](/C=N\O)NS(=O)(=O)c1ccc(Cl)s1 [Example 229]	6.3		
CC[C@H](C)[C@@H](/C=N/O)NS(=O)(=O)c1ccc(Cl)s1 [Example 230]	4.8		
